Measurements as given in patent US12338256B2, “Aza-tetracyclic oxazepine compounds and uses thereof” (Genentech, Inc., priority 2022, dated 2025).

Key:
[1] = tested on: HPAC (homozygous mutant KRAS G12D human pancreatic cell line); assay: KRAS 3D-Cell Proliferation Assay, HPAC (Example 503); type: cell-based; details: Homo sapiens, HPAC, 168 h, HPAC 3D culture, 7 days, CellTiter-Glo 3D; read-out: Prolif HPAC 3D ATP IC50
How it was run: (§1)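 3D culture, ultra-low attachment wells; RPMI-1640/10% FBS/2 mM L-glutamine. Overnight settle, then compound series, 0.3% DMSO final, 7 d, 37° C, 5% CO2. Readout: CellTiter-Glo 3D luminescence. % inhibition vs DMSO (0%) and 1 μM staurosporine (100%); IC50 via 4-parameter Hill.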

[2] = tested on: H1975 (KRAS wild type human lung adenocarcinoma cell line); assay: KRAS 3D-Cell Proliferation Assay, H1975 (Example 503); type: cell-based; details: Homo sapiens, NCI-H1975, 168 h, H1975 3D culture, 7 days, CellTiter-Glo 3D; read-out: Prolif H1975 3D ATP IC50
How it was run: as §1

`C[C@@H]1Oc2nc(-c3cc(N)c(F)c(C4CC4)c3C(F)(F)F)c(F)c3nc(OC[C@@H]4CC[C@H]5COCCN54)nc(c23)N2C[C@H]3CC[C@H](N3)[C@@H]12` [Compound 233, 3-Cyclopropyl-2-fluoro-5-((5S,5aS,6S,9R)-1-fluoro-12-(((6S,8aS)-hexahydro-1H-pyrrolo[2,1-c][1,4]oxazin-6-yl)methoxy)-5-methyl-5a,6,7,8,9,10-hexahydro-5H-4-oxa-3,10a,11,13,14-pentaaza-6,9-methanonaphtho[1,8-ab]heptalen-2-yl)-4-(trifluoromethyl)aniline] showed an IC50 [1] of 2000 nM and an IC50 [2] of 5400 nM.

With `C[C@@H]1Oc2nc(-c3cc(N)cc(C(F)(F)F)c3C(F)(F)F)c(F)c3nc(OC[C@@]45CCCN4C[C@H](F)C5)nc(c23)N2C[C@H]3CC[C@H](N3)[C@@H]12` [Compound 115, 3-((5S,5aS,6S,9R)-1-fluoro-12-(((2R,7aS)-2-fluorotetrahydro-1H-pyrrolizin-7a(5H)-yl)methoxy)-5-methyl-5a,6,7,8,9,10-hexahydro-5H-4-oxa-3,10a,11,13,14-pentaaza-6,9-methanonaphtho[1,8-ab]heptalen-2-yl)-4,5-bis(trifluoromethyl)aniline] the IC50 [1] was 15.7 nM and the IC50 [2] was 2710 nM.

Compound `Cc1c(F)c(N)cc(-c2nc3c4c(nc(OC[C@@]56C[C@H](F)CN5C[C@H](F)C6)nc4c2F)N2C[C@H]4CC[C@H](N4)[C@H]2[C@H](C)O3)c1C(F)(F)F` [Compound 142, 5-((5S,5aS,6S,9R)-12-(((2R,6S,7as)-2,6-Difluorotetrahydro-1H-pyrrolizin-7a(5H)-yl)methoxy)-1-fluoro-5-methyl-5a,6,7,8,9,10-hexahydro-5H-4-oxa-3,10a,11,13,14-pentaaza-6,9-methanonaphtho[1,8-ab]heptalen-2-yl)-2-fluoro-3-methyl-4-(trifluoromethyl)aniline] has an IC50 [1] of 5.45 nM and an IC50 [2] of 3560 nM.

Compound `Cc1nc(N)cc(-c2nc3c4c(nc(OCC5(CN6C[C@@H](C)O[C@@H](C)C6)CC5)nc4c2F)N2C[C@H]4CC[C@H](N4)[C@H]2[C@H](C)O3)c1C(F)(F)F` [Compound 218, 4-((5S,5aS,6S,9R)-12-((1-(((2R,6S)-2,6-Dimethylmorpholino)methyl)cyclopropyl)methoxy)-1-fluoro-5-methyl-5a,6,7,8,9,10-hexahydro-5H-4-oxa-3,10a,11,13,14-pentaaza-6,9-methanonaphtho[1,8-ab]heptalen-2-yl)-6-methyl-5-(trifluoromethyl)pyridin-2-amine] has an IC50 [1] of 1.36 nM and an IC50 [2] of 384 nM.

For `Cc1nc(N)cc(-c2nc3c4c(nc(OCC5(CN6CCO[C@H](C)C6)CC5)nc4c2F)N2C[C@H]4CC[C@H](N4)[C@H]2[C@H](C)O3)c1C(F)(F)F` [Compound 213, 4-((5S,5aS,6S,9R)-1-Fluoro-5-methyl-12-((1-(((R)-2-methylmorpholino)methyl)cyclopropyl)methoxy)-5a,6,7,8,9,10-hexahydro-5H-4-oxa-3,10a,11,13,14-pentaaza-6,9-methanonaphtho[1,8-ab]heptalen-2-yl)-6-methyl-5-(trifluoromethyl)pyridin-2-amine], the IC50 [1] was 1.25 nM and the IC50 [2] was 295 nM.

In the case of `Cc1cc(N)c(F)c(-c2nc3c4c(nc(OC[C@@]56CCCN5C[C@H](F)C6)nc4c2F)N2C[C@H]4CC[C@H](N4)[C@H]2[C@H](C)O3)c1I` [Compound 108, 2-Fluoro-3-((5S,5aS,6S,9R)-1-fluoro-12-(((2R,7aS)-2-fluorotetrahydro-1H-pyrrolizin-7a(5H)-yl)methoxy)-5-methyl-5a,6,7,8,9,10-hexahydro-5H-4-oxa-3,10a,11,13,14-pentaaza-6,9-methanonaphtho[1,8-ab]heptalen-2-yl)-4-iodo-5-methylaniline], the IC50 [1] is reported as 2.85 nM and the IC50 [2] is reported as 772 nM.

Compound `C[C@@H]1Oc2nc(-c3cc(N)cc4c3CCC4)c(F)c3nc(OC[C@@]45CCCN4C[C@H](F)C5)nc(c23)N2C[C@H]3CC[C@H](N3)[C@@H]12` [Compound 83, 7-((5S,5aS,6S,9R)-1-Fluoro-12-(((2R,7aS)-2-fluorotetrahydro-1H-pyrrolizin-7a(5H)-yl)methoxy)-5-methyl-5a,6,7,8,9,10-hexahydro-5H-4-oxa-3,10a,11,13,14-pentaaza-6,9-methanonaphtho[1,8-ab]heptalen-2-yl)-2,3-dihydro-1H-inden-5-amine] has an IC50 [1] of 23.7 nM and an IC50 [2] of 2230 nM.

`Cc1nc(N)cc(-c2nc3c4c(nc(OCC5(CN6CC[C@H]7OCC[C@H]76)CC5)nc4c2F)N2C[C@H]4CC[C@H](N4)[C@H]2[C@H](C)O3)c1C(F)(F)F` [Compound 268, 4-((5S,5aS,6S,9R)-1-fluoro-12-((1-(((3aR,6aR)-hexahydro-4H-furo[3,2-b]pyrrol-4-yl)methyl)cyclopropyl)methoxy)-5-methyl-5a,6,7,8,9,10-hexahydro-5H-4-oxa-3,10a,11,13,14-pentaaza-6,9-methanonaphtho[1,8-ab]heptalene-2-yl)-6-methyl-5-(trifluoromethyl)pyridin-2-amine] gave an IC50 [1] of 2.17 nM and an IC50 [2] of 1700 nM.

`Cc1nc(N)c(F)c(-c2nc3c4c(nc(OCC56CCN5CC(F)(F)C6)nc4c2F)N2C[C@H]4CC[C@H](N4)[C@H]2[C@H](C)O3)c1C(F)(F)F` (stereo partly drawn) [Compound 220, 4-((5S,5aS,6S,9R)-12-((3,3-Difluoro-1-azabicyclo[3.2.0]heptan-5-yl)methoxy)-1-fluoro-5-methyl-5a,6,7,8,9,10-hexahydro-5H-4-oxa-3,10a,11,13,14-pentaaza-6,9-methanonaphtho[1,8-ab]heptalene-2-yl)-3-fluoro-6-methyl-5-(trifluoromethyl)pyridin-2-amine] was tested, and the IC50 [1] was 11.8 nM and the IC50 [2] was 20000 nM.

Work on `Cc1nc(N)cc(-c2nc3c4c(nc(OC[C@@]56CCCN5C[C@H](F)C6)nc4c2F)N2C[C@H]4CC[C@H](N4)[C@H]2[C@H](C)O3)c1CC(F)(F)F` [Compound 185, 4-((5S,5aS,6S,9R)-1-Fluoro-12-(((2R,7aS)-2-fluorotetrahydro-1H-pyrrolizin-7a(5H)-yl)methoxy)-5-methyl-5a,6,7,8,9,10-hexahydro-5H-4-oxa-3,10a,11,13,14-pentaaza-6,9-methanonaphtho[1,8-ab]heptalene-2-yl)-6-methyl-5-(2,2,2-trifluoroethyl)pyridin-2-amine] yielded an IC50 [1] of 32 nM and an IC50 [2] of 4930 nM.

`Cc1nc(N)cc(-c2nc3c4c(nc(OCC5(CN6CC(C(F)F)C6)CC5)nc4c2F)N2C[C@H]4CC[C@H](N4)[C@H]2[C@H](C)O3)c1C(F)(F)F` [Compound 274, 4-((5S,5aS,6S,9R)-12-((1-((3-(difluoromethyl)90eptalene-1-yl)methyl)cyclopropyl)methoxy)-1-fluoro-5-methyl-5a,6,7,8,9,10-hexahydro-5H-4-oxa-3,10a,11,13,14-pentaaza-6,9-methanonaphtho[1,8-ab]heptalene-2-yl)-6-methyl-5-(trifluoromethyl)pyridin-2-amine] was tested, and the IC50 [1] was 7.55 nM and the IC50 [2] was 1070 nM.

For `Cc1c(F)c(N)cc(-c2nc3c4c(nc(OCC5CCC6CN(C)C(=O)CN56)nc4c2F)N2C[C@H]4CC[C@H](N4)[C@H]2[C@H](C)O3)c1C(F)(F)F` (mixture of isomers) [Compound 124, 6-((((5S,5aS,6S,9R)-2-(5-Amino-4-fluoro-3-methyl-2-(trifluoromethyl)phenyl)-1-fluoro-5-methyl-5a,6,7,8,9,10-hexahydro-5H-4-oxa-3,10a,11,13,14-pentaaza-6,9-methanonaphtho[1,8-ab]heptalen-12-yl)oxy)methyl)-2-methylhexahydropyrrolo[1,2-a]pyrazin-3(4H)-one], the IC50 [1] was 293 nM and the IC50 [2] was 12200 nM.

`Cc1c(F)c(N)cc(-c2nc3c4c(nc(OC[C@@]56CCCN5C[C@H](F)C6)nc4c2F)N2CCNC[C@H]2C(C)O3)c1C(F)(F)F` (single isomer, unassigned) [235 (isomer 2)] gave an IC50 [1] of 136 nM and an IC50 [2] of 262 nM.

With `Cc1nc(N)cc(-c2nc3c4c(nc(OCC5(CN6CC7CCOC7C6)CC5)nc4c2F)N2C[C@H]4CC[C@H](N4)[C@H]2[C@H](C)O3)c1C(F)(F)F` (stereo partly drawn) [Compound 280, 4-((5S,5aS,6S,9R)-1-fluoro-12-((1-((hexahydro-5H-furo[2,3-c]pyrrol-5-yl)methyl)cyclopropyl)methoxy)-5-methyl-5a,6,7,8,9,10-hexahydro-5H-4-oxa-3,10a,11,13,14-pentaaza-6,9-methanonaphtho[1,8-ab]heptalene-2-yl)-6-methyl-5-(trifluoromethyl)pyridin-2-amine] the IC50 [1] was 1.77 nM and the IC50 [2] was 1340 nM.

`Cc1cc(N)c(F)c(-c2nc3c4c(nc(OC[C@@H]5CC[C@H]6COCCN65)nc4c2F)N2C[C@H]4CC[C@H](N4)[C@H]2[C@H](C)O3)c1C1CC1` [Compound 98, 4-Cyclopropyl-2-fluoro-3-((5S,5aS,6S,9R)-1-fluoro-12-(((6S,8aS)-hexahydro-1H-pyrrolo[2,1-c][1,4]oxazin-6-yl)methoxy)-5-methyl-5a,6,7,8,9,10-hexahydro-5H-4-oxa-3,10a,11,13,14-pentaaza-6,9-methanonaphtho[1,8-ab]heptalen-2-yl)-5-methylaniline] gave an IC50 [1] of 26.2 nM and an IC50 [2] of 2750 nM.

`Cc1cc(N)c(F)c(-c2nc3c4c(nc(OC[C@@H]5CC[C@H]6COCCN65)nc4c2F)N2C[C@H]4CC[C@H](N4)[C@H]2[C@H](C)O3)c1Cl` [Compound 101, 4-Chloro-2-fluoro-3-((5S,5aS,6S,9R)-1-fluoro-12-(((6S,8aS)-hexahydro-1H-pyrrolo[2,1-c][1,4]oxazin-6-yl)methoxy)-5-methyl-5a,6,7,8,9,10-hexahydro-5H-4-oxa-3,10a,11,13,14-pentaaza-6,9-methanonaphtho[1,8-ab]heptalen-2-yl)-5-methylaniline] was tested, and the IC50 [1] was 41.5 nM and the IC50 [2] was 8490 nM.
